Measured values published in ChEMBL document CHEMBL3885861, “Open TG-GATES”.

Organism: Rattus norvegicus
Assay: Open TG-GATES - Regimen: Single
Assay type: toxicity, organism-based, Sprague-Dawley
Set-up: regimen Single, gender Male, age 6 weeks
Conditions: in vivo, po, 30 mg/kg, route gavage, dose level High; for APTT / Bas / Eos / Fbg / Hb / Ht / Lym / MCH / MCHC / MCV / Mono / Neu / PT / Plat / RBC / Ret / WBC: tissue Blood; for KIDNEY_L / KIDNEY_R / KIDNEY_TOTAL: tissue Kidney; for LIVER: tissue Liver; for A/G / ALP / ALT / AST / BUN / CRE / Ca / Cl / DBIL / GLC / IP / K / LDH / Na / PL / RALB / TBIL / TC / TG / TP / gamma-GTP: tissue Plasma

C[C@H]1C(=O)O[C@@H]2CCN3CC=C(COC(=O)[C@](C)(O)[C@]1(C)O)[C@H]23 [MONOCROTALINE]
TERMINAL_BW (3 h): 209.7 g
APTT (3 h): 21.1 s
Bas (3 h): 0%
Eos (3 h): 1.2%
Fbg (3 h): 305.4 mg/dL
Hb (3 h): 13.2 g/dL
Ht (3 h): 38.8%
Lym (3 h): 76.4%
MCH (3 h): 21.5 pg
MCHC (3 h): 34%
MCV (3 h): 63.2 fL
Mono (3 h): 2.2%
Neu (3 h): 19.6%
PT (3 h): 16.2 s
Plat (3 h): 119.2 x10_4/uL
RBC (3 h): 615.6 x10_4/ul
Ret (3 h): 8.9%
WBC (3 h): 71.5 x10_2/uL
KIDNEY_L (3 h): 0.9 g
KIDNEY_R (3 h): 0.9 g
KIDNEY_TOTAL (3 h): 1.8 g
LIVER (3 h): 9.5 g
A/G (3 h): 1.4
ALP (3 h): 1720.6 IU/L
ALT (3 h): 40.8 IU/L
AST (3 h): 76.4 IU/L
BUN (3 h): 13.2 mg/dL
CRE (3 h): 0.2 mg/dL
Ca (3 h): 10.4 mg/dL
Cl (3 h): 106 meq/L
DBIL (3 h): 0 mg/dL
GLC (3 h): 169.4 mg/dL
IP (3 h): 9.2 mg/dL
K (3 h): 4.2 meq/L
LDH (3 h): 228.2 IU/L
Na (3 h): 142 meq/L
PL (3 h): 127.6 mg/dL
RALB (3 h): 3.1 g/dL
TBIL (3 h): 0.01 mg/dL
TC (3 h): 71.2 mg/dL
TG (3 h): 78.8 mg/dL
TP (3 h): 5.3 g/dL
gamma-GTP (3 h): 1 IU/L
TERMINAL_BW (6 h): 211.5 g
APTT (6 h): 22.7 s
Bas (6 h): 0%
Eos (6 h): 1%
Fbg (6 h): 309.8 mg/dL
Hb (6 h): 13.7 g/dL
Ht (6 h): 39.8%
Lym (6 h): 78.6%
MCH (6 h): 20.8 pg
MCHC (6 h): 34.4%
MCV (6 h): 60.7 fL
Mono (6 h): 2.6%
Neu (6 h): 17.2%
PT (6 h): 16.2 s
Plat (6 h): 128.2 x10_4/uL
RBC (6 h): 657.2 x10_4/ul
Ret (6 h): 8.4%
WBC (6 h): 94.1 x10_2/uL
KIDNEY_L (6 h): 0.9 g
KIDNEY_R (6 h): 1 g
KIDNEY_TOTAL (6 h): 1.9 g
LIVER (6 h): 9.6 g
A/G (6 h): 1.3
ALP (6 h): 1398.4 IU/L
ALT (6 h): 39.2 IU/L
AST (6 h): 72.8 IU/L
BUN (6 h): 11.2 mg/dL
CRE (6 h): 0.1 mg/dL
Ca (6 h): 10.5 mg/dL
Cl (6 h): 106.4 meq/L
DBIL (6 h): 0 mg/dL
GLC (6 h): 173 mg/dL
IP (6 h): 9.6 mg/dL
K (6 h): 4.4 meq/L
LDH (6 h): 273.4 IU/L
Na (6 h): 141.8 meq/L
PL (6 h): 137.4 mg/dL
RALB (6 h): 3 g/dL
TBIL (6 h): 0.018 mg/dL
TC (6 h): 73 mg/dL
TG (6 h): 66 mg/dL
TP (6 h): 5.4 g/dL
gamma-GTP (6 h): 1 IU/L
TERMINAL_BW (9 h): 210 g
APTT (9 h): 20.9 s
Bas (9 h): 0%
Eos (9 h): 0.8%
Fbg (9 h): 301.6 mg/dL
Hb (9 h): 13.2 g/dL
Ht (9 h): 38.3%
Lym (9 h): 79%
MCH (9 h): 21.2 pg
MCHC (9 h): 34.4%
MCV (9 h): 61.8 fL
Mono (9 h): 1.8%
Neu (9 h): 18%
PT (9 h): 16.3 s
Plat (9 h): 122.7 x10_4/uL
RBC (9 h): 620.2 x10_4/ul
Ret (9 h): 9%
WBC (9 h): 63.3 x10_2/uL
KIDNEY_L (9 h): 1 g
KIDNEY_R (9 h): 1 g
KIDNEY_TOTAL (9 h): 2 g
LIVER (9 h): 9.4 g
A/G (9 h): 1.4
ALP (9 h): 1227.2 IU/L
ALT (9 h): 36.8 IU/L
AST (9 h): 70.8 IU/L
BUN (9 h): 9.6 mg/dL
CRE (9 h): 0.1 mg/dL
Ca (9 h): 10.7 mg/dL
Cl (9 h): 105.6 meq/L
DBIL (9 h): 0.006 mg/dL
GLC (9 h): 178 mg/dL
IP (9 h): 10.2 mg/dL
K (9 h): 4.3 meq/L
LDH (9 h): 198.2 IU/L
Na (9 h): 142.2 meq/L
PL (9 h): 119.4 mg/dL
RALB (9 h): 3.1 g/dL
TBIL (9 h): 0.022 mg/dL
TC (9 h): 64 mg/dL
TG (9 h): 40.8 mg/dL
TP (9 h): 5.4 g/dL
gamma-GTP (9 h): 1 IU/L
TERMINAL_BW (24 h): 212.6 g
APTT (24 h): 20.5 s
Bas (24 h): 0%
Eos (24 h): 0.8%
Fbg (24 h): 302.4 mg/dL
Hb (24 h): 13.9 g/dL
Ht (24 h): 40.3%
Lym (24 h): 79.4%
MCH (24 h): 21.1 pg
MCHC (24 h): 34.5%
MCV (24 h): 61.3 fL
Mono (24 h): 3%
Neu (24 h): 16.2%
PT (24 h): 16.1 s
Plat (24 h): 123.3 x10_4/uL
RBC (24 h): 658.2 x10_4/ul
Ret (24 h): 7%
WBC (24 h): 70.1 x10_2/uL
KIDNEY_L (24 h): 1 g
KIDNEY_R (24 h): 1 g
KIDNEY_TOTAL (24 h): 1.9 g
LIVER (24 h): 10.4 g
A/G (24 h): 1.4
ALP (24 h): 1607.2 IU/L
ALT (24 h): 47.8 IU/L
AST (24 h): 75 IU/L
BUN (24 h): 15.8 mg/dL
CRE (24 h): 0.2 mg/dL
Ca (24 h): 10.5 mg/dL
Cl (24 h): 107 meq/L
DBIL (24 h): 0.002 mg/dL
GLC (24 h): 172 mg/dL
IP (24 h): 7.8 mg/dL
K (24 h): 4.3 meq/L
LDH (24 h): 182 IU/L
Na (24 h): 142.2 meq/L
PL (24 h): 182.4 mg/dL
RALB (24 h): 3.2 g/dL
TBIL (24 h): 0.004 mg/dL
TC (24 h): 77 mg/dL
TG (24 h): 108 mg/dL
TP (24 h): 5.5 g/dL
gamma-GTP (24 h): 1 IU/L
